This data set concerns patients with myeloid/lymphoid neoplasms with FGFR1 rearrangement. Put plainly: Phase 2 clinical study in myeloid/lymphoid neoplasms with FGFR1 rearrangement. It counts as in vivo, human. Particulars: for evaluable patients who achieved clinical response: preliminary. From the text:
All potential subjects must have documentation of an 8p11 translocation known to activate FGFR1 through the site's own cytogenetics laboratory. Once documentation has been provided, the subject undergoes screening to meet the rest of the inclusion/exclusion criteria.
One cycle is defined as 21 days of treatment.
The study population is subjects with myeloid/lymphoid neoplasms with FGFR1 rearrangement. […] In addition, only subjects who are not candidates for stem cell transplantation, or have relapsed after stem cell transplantation and […] lymphocyte infusion and who have progressed and are not candidates for other disease-modifying therapies are eligible for the study.
Additional key exclusion criteria include current evidence of clinically significant corneal disorder/keratopathy (including but not limited to bullous/band keratopathy, corneal abrasion, inflammation/ulceration, and keratoconjunctivitis, etc) or retinal disorder (including but not limited to macular/retinal degeneration, diabetic retinopathy, retinal detachment, etc) as confirmed by ophthalmologic examination.
Study visits may include sample collection for chemistry, hematology, coagulation, lipid panel, endocrine monitoring, and urinalysis testing. […] A sample of bone marrow aspirate or peripheral blood is sent to the central laboratory for confirmation of FGFR1 rearrangement as well as a central pathology laboratory for analysis. In addition, sites provide slides and/or digitized images of bone marrow aspirate at baseline and at the time of achieving response and send them to a central pathology group for review.
Once the subject's eligibility is confirmed through the site's laboratory, screening may begin. […] Safety follow-up is 30 days (+5 days) after the last dose of the study drug. In addition, subjects are followed for overall survival after stopping treatment with study drug. Study participation is expected to average approximately 6 months per individual subject.

Structures are written as SMILES.

Turning to `CCN1C(=O)N(c2c(F)c(OC)cc(OC)c2F)Cc2cnc3[nH]c(CN4CCOCC4)cc3c21` [Compound 1, 3-(2,6-difluoro-3,5-dimethoxyphenyl)-1-ethyl-8-(morpholin-4-ylmethyl)-1,3,4,7-tetrahydro-2H-pyrrolo[3′,2′:5,6]pyrido[4,3-d]pyrimidin-2-one], the “evaluable patients who achieved clinical response” value (13 evaluable patients, 13.5 mg QD) came to 85%. Where the note is “14 patients treated”, the “Treatment discontinued, reason: Adverse Event, number of patients” value came out at 2. Moreover, where the note is “14 patients, 13.5 mg QD”, the “TRAE alopecia, %” value is listed as 29%; the “TRAE diarrhea, %” value turned out to be 36%; the “TRAE dyspepsia, %” value was 14%; the “TRAE fatigue, %” value was 14%. Also, under “14 patients, 13.5 mg QD”, the “TRAE hyperphosphatemia, %” value is on record as 64%; the “TRAE increased blood alkaline phosphatase, %” value came to 21%; the “TRAE stomatitis, %” value was determined as 14%; the “patients with grade 3 TRAEs” value was “Three”. For the same compound, the “tolerability (in words)” value (14 patients, 13.5 mg QD) was “generally well tolerated”. The “patients with fatal TEAEs” value (14 patients, unrelated to treatment) is listed as “Two”. The “evaluable patients who achieved clinical response” value (of 13 evaluable patients, 13.5 mg QD) came out at 11 patients. Further, the “response of single patient (PET scan, cytogenetics)” value (person, myeloproliferation and TLL, ZMYM2-FGFR1 fusion, 13.5 mg daily 2 weeks on, 1 week off, at 4 months (beginning of cycle 6)) was “complete cytogenetic remission and complete lymph node remission”.
